From US20170226514A1, “PREVENTION OF TUMOUR METASTASIS BY INHIBITION OF NECROPTOSIS” (MAX-PLANCK-GESELLSCHAFT ZUR FÖRDERUNG DER WISSENSCHAFTEN …, priority 2014, published 2017)

Columns and labels:
[1] = test system: HUVEC; experiment: Cell death assay discriminating apoptotic from necrotic cell death in HUVEC; type: cell-based, human; conditions: stimulated overnight; staining with Hoechst 33342 and EtDIII
Procedure: Endothelial cells were grown to reach 80-90% confluency before addition of Ethidium homodimer […]) alone or together with substances or with tumour cells together with substances or inhibitors as indicated in the figures. After 6-18 h, cells were stained with Hoechst33342 and images were acquired. In order to identify the mode of cell death, all images were analyzed with FIJI. The total number of nuclei was determined through a low threshold over all Hoechst positive nuclei. On the same channel a second, separate threshold was used to determine the number of condensed nuclei. A third threshold on the second channel was used in order to determine the number of nuclei that were stained positive for […]. Knockdown in cells was achieved by double-transfection with siRNA using Lipofectamie […] Assays: HUVECs, HMVECs-L or L929 cells (1.5×10^4 at seeding in 100 μl) were cultured for 24 hours in 96-well plates. To induce cell death, cells were stimulated overnight with either rhTRAIL (100 ng/ml, Peprotech), Staurosporine ([…], Jena BioScience), H2O2 (1 mM, AppliChem) or […] (100 ng/ml, Peprotech) or cultured under hypoxic conditions (1% O2, Coy Laboratory Inc). […] Knockdown efficiencies were determined by Western Blotting using antibodies against RIPK3 (Abcam), Caspase-8 (ProSci) and a-tubulin (Sigma) upon lysis with Laemmli buffer or by quantitative PCR (Roche). […] Knockdown efficiencies were determined using quantitative PCR (Roche). Tumor cell number upon knockdown was determined by counting Hoechst33342-positive cells, and tumor cell death was determined by counting condensed and/or EthD-III-positive nuclei (see below). Cell migration was determined by a scratch assay Wang et al., 2007). […]

[2] = molecular target: T1, RIPK1 (Homo sapiens, UniProt Q13546); conditions: cited from earlier work
T1 sequence (Q13546 1-671): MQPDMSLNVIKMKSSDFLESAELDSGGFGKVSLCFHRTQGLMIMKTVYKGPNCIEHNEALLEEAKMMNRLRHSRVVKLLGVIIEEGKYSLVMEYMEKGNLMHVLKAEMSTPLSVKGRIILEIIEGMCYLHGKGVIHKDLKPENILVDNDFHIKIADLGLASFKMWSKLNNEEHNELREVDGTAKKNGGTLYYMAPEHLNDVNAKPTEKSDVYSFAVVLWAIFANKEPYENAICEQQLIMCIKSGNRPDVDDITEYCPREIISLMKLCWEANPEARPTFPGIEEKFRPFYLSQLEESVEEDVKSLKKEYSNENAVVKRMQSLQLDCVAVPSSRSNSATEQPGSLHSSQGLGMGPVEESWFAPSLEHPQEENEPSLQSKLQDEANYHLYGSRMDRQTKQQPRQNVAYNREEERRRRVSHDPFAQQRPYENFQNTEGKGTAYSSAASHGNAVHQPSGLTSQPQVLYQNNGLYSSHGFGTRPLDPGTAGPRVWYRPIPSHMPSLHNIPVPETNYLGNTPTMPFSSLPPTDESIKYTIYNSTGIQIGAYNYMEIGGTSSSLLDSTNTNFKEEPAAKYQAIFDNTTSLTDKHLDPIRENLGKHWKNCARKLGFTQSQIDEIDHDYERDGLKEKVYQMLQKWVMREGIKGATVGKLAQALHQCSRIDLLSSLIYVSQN

[3] = test system: necroptosis; conditions: where Nec1i can be modified to an active form; cited from earlier work
[4] = test system: endothelial cells of the mouse lung; experiment: Tumour cell-induced endothelial cell death in vivo (EthD-III-positive endothelial cells in lung, 6 h); conditions: B16 tumour cells i.v., Nec-1 1.65 μg/g i.v. per dose
Procedure: (§1) In vivo: Tumour cells and substances or inhibitors were injected i.v. as depicted in the scheme in FIG. 5B into wildtype animals or animals of the respective genotype. To identify EtDIII-positive cells in vivo, animals were injected with EtDIII i.v. 10 min before sacrifice. Organs were isolated and processed for immunohistochemical analysis. For determining the number of metastasis, animals were sacrificed, lungs were isolated and macroscopically analyzed. All reagents used for these studies (incl. DR6-Fc) are commercially available (e.g. Lonza, CellSignaling, Sigma, R&D, etc.). […]
(§2) TUNEL staining kit was from Roche. Sections were analyzed in XYZ views on a Leica SPS confocal microscope. The number of EthD-III-positive endothelial cells was determined by manual counting of EthD-III/ERG- or EthD-III/CD31-positive cells on a minimum of four random tissue sections per organ. For quantification of extravasating tumor cells, cryosections were analyzed by two criteria: tumor cells directly surrounded by CD31 staining (i.e. blood vessel) and with a noninvasive phenotype (i.e. round cell shape) were scored as intravascular, while cells outside blood vessels with an invasive phenotype (i.e. irregular cell shape with protrusions) were scored as extravascular. […]

[5] = test system: HUVEC; experiment: Tumour cell-induced endothelial cell necroptosis in vitro (co-culture, Hoechst 33342/EtDIII staining); type: cell-based, human; conditions: Nec-1 30 μM, co-culture overnight
Procedure: Endothelial cells were grown to reach 80-90% confluency before addition of Ethidium homodimer […]) alone or together with substances or with tumour cells together with substances or inhibitors as indicated in the figures. After 6-18 h, cells were stained with Hoechst33342 and images were acquired. In order to identify the mode of cell death, all images were analyzed with FIJI. The total number of nuclei was determined through a low threshold over all Hoechst positive nuclei. On the same channel a second, separate threshold was used to determine the number of condensed nuclei. A third threshold on the second channel was used in order to determine the number of nuclei that were stained positive for […]. Knockdown in cells was achieved by double-transfection with siRNA using Lipofectamie […] […] Knockdown efficiencies were determined by Western Blotting using antibodies against RIPK3 (Abcam), Caspase-8 (ProSci) and a-tubulin (Sigma) upon lysis with Laemmli buffer or by quantitative PCR (Roche). […] Knockdown efficiencies were determined using quantitative PCR (Roche). Tumor cell number upon knockdown was determined by counting Hoechst33342-positive cells, and tumor cell death was determined by counting condensed and/or EthD-III-positive nuclei (see below). Cell migration was determined by a scratch assay Wang et al., 2007). […]

[6] = test system: B16 or LLC1 tumour cells; experiment: Metastasis model: lung metastases after i.v. tumour cell injection (12 d); type: in vivo, mouse; conditions: Nec-1 1.65 μg/g i.v. per dose, lungs at 12 d
Procedure: as §1, §2

[7] = test system: L929 cells; experiment: Cell death assay in L929 cells (TNF-induced necroptosis, Hoechst 33342/EtDIII staining); type: cell-based, mouse; conditions: L929 cells treated with TNFα; staining with Hoechst 33342 and EtDIII
Procedure: Cell Death Assays: HUVECs, HMVECs-L or L929 cells (1.5×10^4 at seeding in 100 μl) were cultured for 24 hours in 96-well plates. To induce cell death, cells were stimulated overnight with either rhTRAIL (100 ng/ml, Peprotech), Staurosporine ([…], Jena BioScience), H2O2 (1 mM, AppliChem) or […] (100 ng/ml, Peprotech) or cultured under hypoxic conditions (1% O2, Coy Laboratory Inc). […] Knockdown efficiencies were determined by Western Blotting using antibodies against RIPK3 (Abcam), Caspase-8 (ProSci) and a-tubulin (Sigma) upon lysis with Laemmli buffer or by quantitative PCR (Roche). […] Knockdown efficiencies were determined using quantitative PCR (Roche). Tumor cell number upon knockdown was determined by counting Hoechst33342-positive cells, and tumor cell death was determined by counting condensed and/or EthD-III-positive nuclei (see below). Cell migration was determined by a scratch assay Wang et al., 2007). […] To all images to be analyzed, a Gaussian blur with a radius of 3 pixels was applied to prevent repeatedly counting of fragmented parts of apoptotic nuclei. […] The total number of all endothelial nuclei was determined through a low threshold (TH1) and application of a watershed on the resulting binary image over all Hoechst positive nuclei (minus the nuclei from tumor cells). […]

CN[C@@H]1C[C@H]2O[C@@](C)([C@@H]1OC)n1c3ccccc3c3c4c(c5c6ccccc6n2c5c31)C(=O)NC4 [Staurosporine]
type of cell death induced in HUVEC [1]: induced apoptosis

OO [H2O2]
type of cell death induced in HUVEC [1]: necrotic phenotype

O=C1NC(=S)NC1Cc1c[nH]c2ccccc12 (stereo not drawn) [Nec-1 inactive, 5-((1H-indol-3-yl)methyl)-2-thioxoimidazolidin-4-one]
effectiveness in vitro relative to Nec-1 (times less effective) [2]: approximately 100 times | inhibition of necroptosis in cellular systems or in vivo [3]: can efficiently inhibit necroptosis

CN1C(=O)C(Cc2c[nH]c3ccccc23)NC1=S (stereo not drawn) [Nec-1, 5-(1H-indo1-3-ylmethyl)-3-methyl-2-thioxo-4-imidazolidinone]
tumour cell-induced endothelial necroptosis in vivo (necroptotic ECs) [4]: reduced | tumour cell-induced necroptosis of endothelial cells in vitro (number of necroptotic HUVEC) [5]: reduced | metastasis formation in vivo [6]: reduced | TNF-induced necrotic (necroptotic) phenotype of L929 cells, effect of addition of inhibitor [7]: could be blocked

B1: TRAIL: known stimulus for apoptosis, rhTRAIL from Peprotech (protein, UniProt P50591 1-281, looked up)
Tumor necrosis factor ligand …: MAMMEVQGGPSLGQTCVLIVIFTVLLQSLCVAVTYVYFTNELKQMQDKYSKSGIACFLKEDDSYWDPNDEESMNSPCWQVKWQLRQLVRKMILRTSEETISTVQEKQQNISPLVRERGPQRVAAHITGTRGRSNTLSSPNSKNEKALGRKINSWESSRSGHSFLSNLHLRNGELVIHEKGFYYIYSQTYFRFQEEIKENTKNDKQMVQYIYKYTSYPDPILLMKSARNSCWSKDAEYGLYSIYQGGIFELKENDRIFVSVTNEHLIDMDHEASFFGAFLVG
type of cell death induced in HUVEC [1]: induced apoptosis
